# Assay results published in patent publication US20120151612A1, “NON-SURGICAL APPROACH TO PREVENT AND CORRECT CRANIOFACIAL MALFORMATIONS DURING DEVELOPMENT” (UNIVERSITY OF SOUTHERN CALIFORNIA, priority 2010, published 2012).
# Entries after “also recorded” stand apart in the source; their conditions may differ.
# B1: Fgf7: Fgf7 protein on beads placed into E13.5 palatal shelves in vitro (protein)
# chain: CNDMSPEQTATSVNCSSPERHTRSYDYMEGGDIRVRRLFCRTQWYLRIDKRGKVKGTQEMKNSYNIMEIRTVAVGIVAIKGVESEYYLAMNKEGKLYAKKECNEDCNFKELILENHYNTYASAKWTHSGGEMFVALNQKGIPVKGKKTKKEQKTAHFLPMAIT
# Tests used:
# MEPM cells = experiment: Pulse-chase analysis of lipid droplet formation; format: cell-based, mice
# Protocol: Pulse-chase analysis of lipid droplet formation. Chemical inducers, oleic acid for lipogenesis and isoproterenol for lipolysis, were added into culture medium to analyze lipid droplet formation. The number of lipid droplets per cell was counted. Oleic acid was added to the medium at 100 μM for 0, 60, and 120 min, and then washed out and changed to the medium with 100 μM isoproterenol for 10 and 30 min. Twenty cells were counted at each time point.
# p38 MAPK [1] = experiment: Immunoblot of p38 MAPK and 14-3-3ζ/δ phosphorylation in primary MEPM cells; format: cell-based, mice; conditions: Tgfbr2^fl/fl; Wnt1-Cre MEPM cells, 10 μM for 24 hours
# Protocol: (§1) Primary MEPM cells. Primary MEPM cells were obtained from E13.5 embryos. Briefly, palatal shelves were dissected at E13.5, and trypsinized for 30 minutes at 37° C. in a CO2 incubator. After pipetting thoroughly, cells were cultured in Dulbecco's modified Eagle's medium containing 10% fetal bovine serum supplemented with penicillin, streptomycin, L-glutamate, sodium pyruvate, and nonessential amino acids.
# [2] = tested on: Tgfbr2^fl/fl; Wnt1-Cre palate; experiment: Palatal shelf organ culture, BrdU-labeled nuclei (Example 2); format: cell-based, mice; conditions: ex vivo organ culture, 100 μM, 24 hours
# Protocol: (§2) Histological examination. Hematoxylin and eosin staining and BrdU staining were performed as described previously. Immunohistochernical staining was performed as described previously. Antibodies used for immunohistochemistry were anti-β-spectrin rabbit polyclonal, and anti-Tgf-βRIII mouse monoclonal antibodies (Santa Cruz Biotechnology), anti-Tgf-β2 mouse monoclonal, and anti-14-3-3ζ/δ rabbit polyclonal antibodies (Abeam). Fluorescence images were obtained using a fluorescence microscope (Model IX71, Olympus).
# Palatal shelf organ culture. Time-pregnant mice were sacrificed at E13.5. Genotyping was carried out as described above. The palatal shelves were microdissected and cultures in serum-less chemically defined medium as previously described. After 24 hours in culture treated with p38 MAPK inhibitor SB203580 (100 μM), and neutralizing antibody for Tgf-β2 (2 μg/ml) or Tgf-βRIII (2 μg/ml), palates were harvested, fixed in 4% paraformaldehyde/0.1 M phosphate buffer (pH 7.4) and processed.
# [3] = tested on: Tgfbr2^fl/fl; Wnt1-Cre MEPM cells; experiment: Lipid droplet accumulation (Oil Red O staining) in primary MEPM cells; format: cell-based, mice
# Protocol: Histological examination. Cryosections were stained with Oil Red O to detect lipid production. Prepared sections were washed three times in phosphate buffer saline (PBS) (each wash 5 min) and fixed in 4% formaldehyde in 0.1 M phosphate buffer for 1 h at room temperature. Sections were then incubated for 15 min in 60% isopropanol and stained for 15 min with a filtered solution of three parts of Oil Red O (saturated in isopropanol) and two parts of ddH2O. For the next step, slides were briefly rinsed in 60% isopropanol and washed thoroughly in ddH2O. Cells were counterstained in Mayers Hematoxylin Solution.
# as §1
# [4] = tested on: palatal mesenchyme of E13.5 palatal explants; experiment: Palatal shelf organ culture with bead implantation or antibody, BrdU cell proliferation and fusion (Example 1); format: cell-based, mice
# Protocol: Palatal shelf organ cultures and bead implantation. Timed-pregnant mice were sacrificed on postcoital day 13.5 (E13.5). Genotyping was carried out as previously described (Depew et al., 1999; Satokata and Maas, 1994). Paired secondary palatal shelves were microdissected and cultured in serumless, chemically-defined medium as previously described (Ito et al., 2003). For bead implantation, Affi-Gel blue agarose beads (BioRad) were soaked in proteins as previously described (Zhang et al., 2002). […] Shh N-terminal peptide (R & D 7 systems) was used at 1 mg/ml, anti-Shh antibody (Developmental Studies Hybridoma Bank) was used at 0.30 mg/ml, and BSA was used at 10 ng/ml. Neutralizing antibodies to Fgf7 (MAB251) and Mouse IgG1 (MAB002) (R & D Systems) were added to the culture medium at concentrations of 50 μg/ml.
# (§3) Apoptosis and cell proliferation. Following treatment with […] proteinase K for 15 minutes at room temperature, apoptotic cells were assayed by the TUNEL procedure using the In Situ Cell Death Detection (fluorescein) kit (Roche Molecular Biochemicals) by following the manufacturer's protocol. Cell proliferation was scored by injection of BrdU (5-bromo-2′-deoxy-uridine, Sigma. 100 μg/g body weight) into pregnant females 1 hour before recovery of embryos. For palatal organ culture, BrdU was supplemented into culture medium at concentration of 100 μM for 2 hours before harvest. […]
# Fgf7 expression = experiment: In situ hybridization of Fgf7 in treated palatal explants; format: cell-based, mice; conditions: Shh beads vs BSA beads
# Protocol: (§4) Palatal shelf organ cultures and bead implantation. Timed-pregnant mice were sacrificed on postcoital day 13.5 (E13.5). Genotyping was carried out as previously described (Depew et al., 1999; Satokata and Maas, 1994). Paired secondary palatal shelves were microdissected and cultured in serumless, chemically-defined medium as previously described (Ito et al., 2003). For bead implantation, Affi-Gel blue agarose beads (BioRad) were soaked in proteins as previously described (Zhang et al., 2002). Tissues were harvested after 24 hours of culture and fixed in 4% paraformaldehyde for processing. Shh N-terminal peptide (R & D 7 systems) was used at 1 mg/ml, anti-Shh antibody (Developmental Studies Hybridoma Bank) was used at 0.30 mg/ml, and BSA was used at 10 ng/ml. Neutralizing antibodies to Fgf7 (MAB251) and Mouse IgG1 (MAB002) (R & D Systems) were added to the culture medium at concentrations of 50 μg/ml.
# (§5) In situ hybridization. Samples for whole-mount and section in situ hybridization were fixed in freshly made 4% paraformaldehyde/PBS. In situ hybridizations were performed as previously described (Xu et al., 2005). The following cDNAs were used to generate antisense riboprobes: a 1.2 kb fragment of mouse Msx1, a 900 bp mouse Dlx5, a 1.6 kb mouse Gli1, and 640 bp mouse Shh. […]
# [5] = tested on: MEE of E13.5 wild type palatal shelves; experiment: TUNEL apoptosis assay in palatal explants; format: cell-based, mice; conditions: Shh beads vs BSA beads
# Protocol: as §4
# as §3, with “embryos.” for “embryos. For palatal organ culture, BrdU was supplemented into culture medium at concentration of 100 μM for 2 hours before harvest.”
# p38 MAPK [6] = experiment: Immunoblotting of p38 MAPK activity in mice after telmisartan treatment; format: in vivo; conditions: Tgfbr2^fl/fl; Wnt1-Cre mice after telmisartan treatment
# Protocol: Animals. To generate Tgfbr2^fl/fl; Wnt1-Cre mice, we mated Tgfbr2^fl/+; Wnt1-Cre with Tgfbr2^fl/fl mice. To generate Tgfbr2^fl/fl; Wnt1-Cre; Tgfb2^+/- mice, we mated Tgfbr2^fl/+; Wnt1-Cre; Tgfb2^+/- with Tgfbr2^fl/fl mice. To generate Tgfbr2^fl/fl; Wnt1-Cre; Alk5^fl/+ mice, we mated Tgfbr2^fl/+; Wnt1-Cre; Alk5^fl/fl with Tgfbr2^fl/fl; Alk5^fl/fl mice. Genotyping was performed using PCR primers as described previously^28, 29. Female Tgfbr2^fl/fl mice, which underwent timed matings with Tgfbr2^fl/+; Wnt1-Cre male mice, were treated with oral telmisartan (0.5 mg in 25 μl dimethyl sulfoxide per day by a feeding tube) or vehicle (25 μ[…] sulfoxide by a feeding tube) from 0.5 day post-coitum (E0.5). Therapy was continued throughout pregnancy. Immunological analysis. Immunoblots were performed as described previously. Antibodies used for immunoblotting were as follows: rabbit polyclonal antibodies against p38, JNK, and phospho-JNK (Cell Signaling Technology), 14-3-3ζ/δ, Smad2/3, […] (Abeam), phospho-14-3-3 (ABR), 14-3-3ε, and β-spectrin (Santa Cruz Biotechnology); rabbit monoclonal antibodies against phospho-p38, and phospho-Smad2 (Cell Signaling Technology); and mouse monoclonal antibodies against Smad4, and Tgf-βrIII (Santa Cruz Biotechnology), Tgf-β2 (Abeam), and GAPDH (Chemicon). MEPM cells were treated with or without p38 MAPK inhibitor SB203580 at 10 μM for 24 hours.
# [7] = tested on: Tgfbr2^fl/fl; Wnt1-Cre mice; experiment: Rescue of cleft palate in Tgfbr2^fl/fl; Wnt1-Cre embryos after feeding telmisartan to pregnant females; format: in vivo; conditions: for cleft palate (in words): Tgfbr2 mutant mice, treatment of pregnant mice
# Protocol: (§6) Animals. To generate Tgfbr2^fl/fl; Wnt1-Cre mice, we mated Tgfbr2^fl/+; Wnt1-Cre with Tgfbr2^fl/fl mice. To generate Tgfbr2^fl/fl; Wnt1-Cre; Tgfb2^+/− mice, we mated Tgfbr2^fl/+; Wnt1-Cre; Tgfb2^+/− with Tgfbr2^fl/fl mice. To generate Tgfbr2^fl/fl; Wnt1-Cre; Alk5^fl/+ mice, we mated Tgfbr2^fl/+; Wnt1-Cre; Alk5^fl/fl with Tgfbr2^fl/fl; Alk5^fl/fl mice. Genotyping was performed using PCR primers as described previously^28, 29. Female Tgfbr2^fl/fl mice, which underwent timed matings with Tgfbr2^fl/+; Wnt1-Cre male mice, were treated with oral telmisartan (0.5 mg in 25 μl dimethyl sulfoxide per day by a feeding tube) or vehicle (25 μl dimethl sulfoxide by a feeding tube) from 0.5 day post-coitum (E0.5). Therapy was continued throughout pregnancy.
# [8] = tested on: Tgfbr2^fl/fl; Wnt1-Cre mice; experiment: Triacylglycerol level in mice after telmisartan treatment; format: in vivo; conditions: E18.5
# Protocol: as §6
# Triacylglycerol amount. Triacylglycerol amounts were measured by an enzymatic method using N-ethyl-N-(2-hydroxy-3-sulfopropyl)-3,5-dimethoxyaniline sodium salt according to the manufacturer's instructions (Wako). Data is expressed as mg per 100 mg protein.
# [9] = tested on: Tgfbr2^fl/fl and Tgfbr2^fl/fl; Wnt1-Cre embryos; experiment: Histological analyses of embryo organs (heart, kidney, liver) after feeding telmisartan to pregnant females; format: in vivo, mice
# Protocol: as §6
# as §2, with “Immunohistochemical” for “Immunohistochernical”, “anti-Tgf-βrIII” for “anti-Tgf-βRIII”, “anti-14-3-3” for “anti-14-3-3ζ/δ”
# [10] = tested on: angiotensin-mediated Tgf-β signaling; conditions: patients of Marfan syndrome; cited from earlier work
# [11] = tested on: Shh expression in the palatal epithelium; experiment: In situ hybridization of Shh in treated palatal explants; format: cell-based, mice; conditions: Fgf7 beads
# Protocol: as §4, §5
molecule,measurement,setting,value
CC(C)NCC(O)c1ccc(O)c(O)c1 (centres unmarked) [isoproterenol],number of lipid droplets,"MEPM cells; Tgfbr2^fl/fl MEPM cells, after switch to 100 μM isoproterenol",decreased immediately
same,lipid droplet number,"MEPM cells; Tgfbr2^fl/fl, Wnt1-Cre MEPM cells, after switch to 100 μM isoproterenol",remained high
"C[S+]([O-])c1ccc(-c2nc(-c3ccc(F)cc3)c(-c3ccncc3)[nH]2)cc1 (centres unmarked) [SB203580, 4-[4-(4-fluorophenyl)-2-(4-methylsulfinylphenyl)-1H-imidazol-5-yl]pyridine]",phosphorylation of 14-3-3ζ/δ,p38 MAPK [1],inhibited
same,phosphorylation of p38 (Mapk14),p38 MAPK [1],inhibited
same,cell proliferation defect (BrdU-labeled nuclei),[2],rescued cell proliferation
same,lipid droplet accumulation,[3],failed to detect lipid droplet accumulation; also recorded: Lipid droplets did not accumulate
"Shh: Shh N-terminal peptide (R & D systems) used at 1 mg/ml, soaked into Affi-Gel blue agarose beads",palatal mesenchyme cell proliferation (BrdU),"[4]; E13.5 wild type palatal explants, Shh beads vs BSA beads",enhanced
same,palatal fusion of explants,"[4]; Shh beads, two days of culture",able to fuse
same,Fgf7 expression,Fgf7 expression,repressed
same,apoptosis in the MEE (TUNEL),[5],did not affect apoptosis
CCCCCCCC/C=C\CCCCCCCC(=O)O [oleic acid],number of lipid droplets,"MEPM cells; MEPM cells of both Tgfbr2^fl/fl and Tgfbr2^fl/fl, Wnt1-Cre mice, oleic acid 100 μM",increased
"CCCc1nc2c(C)cc(-c3nc4ccccc4n3C)cc2n1Cc1ccc(-c2ccccc2C(=O)O)cc1 [telmisartan, 2-(4-{[4-methyl-6-(1-methyl-1H-1,3-benzodiazol-2-yl)-2-propyl-1H-1,3-benzodiazol-1-yl]methyl}phenyl)benzoic acid]",up-regulated p38 MAPK activity,p38 MAPK [6],restored to normal
same,cell proliferation defect,"[7]; Tgfbr2^fl/fl, Wnt1-Cre mice following telmisartan treatment",restored cell proliferation defect
same,cleft palate (in words),[7],prevents the cleft palate
same,cleft palate (in words),[7]; listed as Telmisartan,rescue cleft palate defects
same,"cleft palate rescued, number of Tgfbr2^fl/fl; Wnt1-Cre mice",[7]; oral telmisartan 0.5 mg per day to pregnant females from E0.5,5/18
same,increased triacylglycerol level,[8],restored to normal
same,effect on kidney or liver histology,"[9]; Tgfbr2^fl/fl and Tgfbr2^fl/fl, Wnt1-Cre embryos",does not appear to affect kidney or liver
same,heart defect,"[9]; Tgfbr2^fl/fl, Wnt1-Cre mice after telmisartan",does not rescue the heart defect
same,side-effects in other organs,[9]; embryos after telmisartan to pregnant females,without obvious side-effects in other organs
CCCCc1nc(Cl)c(CO)n1Cc1ccc(-c2ccccc2-c2nn[nH]n2)cc1 [losartan],enlarged aorta,[10],prevents the enlarged aorta
B1,Shh expression in the palatal epithelium,[11]; Dlx5−/− samples,inhibit Shh expression
same,Shh expression in the palatal epithelium,"[11]; E13.5 palatal shelves, one day of culture, compared to BSA",dramatic reduction
